# Tests used:
# oval-leafed pondweed = assay: Test Example 1: herbicidal activity, application before weed generation under submerged conditions (Table 16, symbol C); assay type: in vivo, oval-leafed pondweed (Monochoria vaginalis)
# Outline: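 Alluvial soil was flooded to 4 cm depth, weed seeds were sown mixed and 2.5-leaf rice seedlings were transplanted. On sowing day, the compound's emulsion, diluted in water to a set dose, was applied to the water surface. Plants grew at 25–30 °C and were scored 0–5 after three weeks.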
# late watergrass = assay: Test Example 2: herbicidal activity, application during weed generation under submerged conditions (Table 17, symbol A); assay type: in vivo, late watergrass (Echinochloa oryzicola); conditions: application during weed generation, submerged conditions
# Outline: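 3-wk visual-criteria score after one water-surface dose. Emulsion formulation, water-diluted to set rate; applied at 1–2 leaf stage; alluvial soil, 4 cm standing water; seeds co-sown; greenhouse 25–30° C.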
# barnyard grass [1] = assay: Test Example 3: herbicidal effect by foliage application, Wagner pot (Table 18, symbol H); assay type: in vivo, barnyard grass (Echinochloa crus-galli)
# Outline: (§1)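 Plants were sown in alluvial soil held under 0.1–0.5 cm standing water and grown 14 days in a greenhouse at 25–30 °C. An emulsifiable formulation, water-diluted to the set dose, was then sprayed onto the foliage, and effects were scored three weeks later using previously defined criteria.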
# Chinese sprangletop = assay: Test Example 3: herbicidal effect by foliage application, Wagner pot (Table 18, symbol D); assay type: in vivo, chinese sprangletop (Leptochloa chinensis)
# Outline: as §1
# rice flat sedge = assay: Test Example 3: herbicidal effect by foliage application, Wagner pot (Table 18, symbol E); assay type: in vivo, rice flat sedge (Cyperus iria)
# Outline: as §1
# southern crabgrass = assay: Test Example 4: herbicidal effect by soil treatment (Table 19, symbol F); assay type: in vivo, southern crabgrass (Digitaria ciliaris)
# Outline: (§2)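 Scoring uses the grading scale of an earlier test, three weeks post-application. Treatment consists of spraying a diluted emulsion formulation across the surface of sterilized diluvial soil in which seeds are buried near 1.5 cm deep; boxes are kept in a greenhouse between 25° C. and 30° C.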
# barnyard grass [2] = assay: Test Example 4: herbicidal effect by soil treatment (Table 19, symbol H); assay type: in vivo, barnyard grass (Echinochloa crus-galli)
# Outline: as §2
# windgrass = assay: Test Example 4: herbicidal effect by soil treatment (Table 19, symbol L); assay type: in vivo, windgrass (Apera spica-venti)
# Outline: as §2
# chickweed = assay: Test Example 4: herbicidal effect by soil treatment (Table 19, symbol P); assay type: in vivo, common chickweed (Stellaria media)
# Outline: as §2
# false cleavers [3] = assay: Test Example 4: herbicidal effect by soil treatment (Table 19, symbol Q); assay type: in vivo, false cleavers (Galium spurium)
# Outline: as §2
# redroot pigweed = assay: Test Example 5: herbicidal effect by foliage application, plastic box (Table 20, symbol N); assay type: in vivo, redroot pigweed (Amaranthus retroflexus); conditions: foliage application, three weeks after application
# Outline: (§3)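 Post-emergence foliar test in sterilized diluvial soil. Compound applied as water-diluted emulsion at a predetermined rate to 14-day-old plants; evaluation at three weeks.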
# lambsquarters = assay: Test Example 5: herbicidal effect by foliage application, plastic box (Table 20, symbol O); assay type: in vivo, lambsquarters (Chenopodium album); conditions: foliage application, three weeks after application
# Outline: as §3
# false cleavers [4] = assay: Test Example 5: herbicidal effect by foliage application, plastic box (Table 20, symbol Q); assay type: in vivo, false cleavers (Galium spurium); conditions: foliage application, three weeks after application
# Outline: as §3
# persian speedwell = assay: Test Example 5: herbicidal effect by foliage application, plastic box (Table 20, symbol R); assay type: in vivo, Persian speedwell (Veronica persica); conditions: foliage application, three weeks after application
# Outline: as §3
# [5] = amount of applied herbicide 320 g/ha
# [6] = amount of applied herbicide 310 g/ha
compound,measurement,setting,value
CCCC(=O)Oc1c(C)nn(C)c(=O)c1-c1c(-c2ccc(F)cc2OCC)sc2cc(F)ccc12 [3-012],"Herbicidal effect, C: oval-leafed pondweed",oval-leafed pondweed; [5],4 (Herbicidal rate of 70% or more and less than 90%)
same,"herbicidal effect rating, A: late watergrass",late watergrass; AAH 320 g/ha,4 (Herbicidal rate of 70% or more and less than 90%)
same,herbicidal effect on H: barnyard grass,barnyard grass [1]; [5],5 (Herbicidal rate of 90% or more (almost completely withered))
same,herbicidal effect on D: Chinese sprangletop,Chinese sprangletop; [5],2 (Herbicidal rate of 20% or more and less than 40%)
same,herbicidal effect on E: rice flat sedge,rice flat sedge; [5],5 (Herbicidal rate of 90% or more (almost completely withered))
same,"herbicidal effect, F: southern crabgrass",southern crabgrass; [5],3 (Herbicidal rate of 40% or more and less than 70%)
same,"herbicidal effect, H: barnyard grass",barnyard grass [2]; [5],3 (Herbicidal rate of 40% or more and less than 70%)
same,"herbicidal effect, L: windgrass",windgrass; [5],5 (Herbicidal rate of 90% or more (almost completely withered))
same,"herbicidal effect, P: chickweed",chickweed; [5],4 (Herbicidal rate of 70% or more and less than 90%)
same,"herbicidal effect, Q: false cleavers",false cleavers [3]; [5],5 (Herbicidal rate of 90% or more (almost completely withered))
same,"N: redroot pigweed, herbicidal effect grade",redroot pigweed; 320 g/ha,5 (Herbicidal rate of 90% or more (almost completely withered))
same,"O: lambsquarters, herbicidal effect grade",lambsquarters; 320 g/ha,4 (Herbicidal rate of 70% or more and less than 90%)
same,"Q: false cleavers, herbicidal effect grade",false cleavers [4]; 320 g/ha,5 (Herbicidal rate of 90% or more (almost completely withered))
same,"R: persian speedwell, herbicidal effect grade",persian speedwell; 320 g/ha,5 (Herbicidal rate of 90% or more (almost completely withered))
CCCC(=O)Oc1c(C)nn(C)c(=O)c1-c1c(-c2ccc(F)cc2OCC)sc2cc(C)ccc12 [3-058],"Herbicidal effect, C: oval-leafed pondweed",oval-leafed pondweed; [5],3 (Herbicidal rate of 40% or more and less than 70%)
same,"herbicidal effect rating, A: late watergrass",late watergrass; AAH 320 g/ha,4 (Herbicidal rate of 70% or more and less than 90%)
same,herbicidal effect on barnyard grass (H),barnyard grass [1]; 320 g/ha,5 (Herbicidal rate of 90% or more (almost completely withered))
same,herbicidal effect on Chinese sprangletop (D),Chinese sprangletop; 320 g/ha,4 (Herbicidal rate of 70% or more and less than 90%)
same,herbicidal effect on rice flat sedge (E),rice flat sedge; 320 g/ha,5 (Herbicidal rate of 90% or more (almost completely withered))
same,"F: southern crabgrass, herbicidal effect grade",southern crabgrass; [5],5 (Herbicidal rate of 90% or more (almost completely withered))
same,"H: barnyard grass, herbicidal effect grade",barnyard grass [2]; [5],0 (Herbicidal rate of 5% or less (almost no effect))
same,"L: windgrass, herbicidal effect grade",windgrass; [5],5 (Herbicidal rate of 90% or more (almost completely withered))
same,"P: chickweed, herbicidal effect grade",chickweed; [5],4 (Herbicidal rate of 70% or more and less than 90%)
same,"Q: false cleavers, herbicidal effect grade",false cleavers [3]; [5],1 (Herbicidal rate of 5% or more and less than 20%)
same,"N: redroot pigweed, herbicidal effect grade",redroot pigweed; 320 g/ha,4 (Herbicidal rate of 70% or more and less than 90%)
same,"O: lambsquarters, herbicidal effect grade",lambsquarters; 320 g/ha,5 (Herbicidal rate of 90% or more (almost completely withered))
same,"Q: false cleavers, herbicidal effect grade",false cleavers [4]; 320 g/ha,5 (Herbicidal rate of 90% or more (almost completely withered))
same,"R: persian speedwell, herbicidal effect grade",persian speedwell; 320 g/ha,5 (Herbicidal rate of 90% or more (almost completely withered))
CCCC(=O)Oc1c(C)nn(C)c(=O)c1-c1c(-c2ccc(F)cc2OC)sc2cc(OC)ccc12 [3-077],"Herbicidal effect, C: oval-leafed pondweed",oval-leafed pondweed; [5],5 (Herbicidal rate of 90% or more (almost completely withered))
same,"herbicidal effect rating, A: late watergrass",late watergrass; AAH 320 g/ha,2 (Herbicidal rate of 20% or more and less than 40%)
same,herbicidal effect on barnyard grass (H),barnyard grass [1]; 320 g/ha,5 (Herbicidal rate of 90% or more (almost completely withered))
same,herbicidal effect on Chinese sprangletop (D),Chinese sprangletop; 320 g/ha,1 (Herbicidal rate of 5% or more and less than 20%)
same,herbicidal effect on rice flat sedge (E),rice flat sedge; 320 g/ha,5 (Herbicidal rate of 90% or more (almost completely withered))
same,"F: southern crabgrass, herbicidal effect grade",southern crabgrass; [5],0 (Herbicidal rate of 5% or less (almost no effect))
same,"H: barnyard grass, herbicidal effect grade",barnyard grass [2]; [5],3 (Herbicidal rate of 40% or more and less than 70%)
same,"L: windgrass, herbicidal effect grade",windgrass; [5],3 (Herbicidal rate of 40% or more and less than 70%)
same,"P: chickweed, herbicidal effect grade",chickweed; [5],4 (Herbicidal rate of 70% or more and less than 90%)
same,"Q: false cleavers, herbicidal effect grade",false cleavers [3]; [5],2 (Herbicidal rate of 20% or more and less than 40%)
same,"N: redroot pigweed, herbicidal effect grade",redroot pigweed; 320 g/ha,3 (Herbicidal rate of 40% or more and less than 70%)
same,"O: lambsquarters, herbicidal effect grade",lambsquarters; 320 g/ha,4 (Herbicidal rate of 70% or more and less than 90%)
same,"Q: false cleavers, herbicidal effect grade",false cleavers [4]; 320 g/ha,3 (Herbicidal rate of 40% or more and less than 70%)
same,"R: persian speedwell, herbicidal effect grade",persian speedwell; 320 g/ha,3 (Herbicidal rate of 40% or more and less than 70%)
CCCC(=O)Oc1c(C)nn(C)c(=O)c1-c1c(-c2ccc(OC)cc2)sc2cc(OC)ccc12 [3-069],"Herbicidal effect, C: oval-leafed pondweed",oval-leafed pondweed; [5],2 (Herbicidal rate of 20% or more and less than 40%)
same,"herbicidal effect rating, A: late watergrass",late watergrass; AAH 320 g/ha,0 (Herbicidal rate of 5% or less (almost no effect))
same,herbicidal effect on barnyard grass (H),barnyard grass [1]; 320 g/ha,0 (Herbicidal rate of 5% or less (almost no effect))
same,herbicidal effect on Chinese sprangletop (D),Chinese sprangletop; 320 g/ha,0 (Herbicidal rate of 5% or less (almost no effect))
same,herbicidal effect on rice flat sedge (E),rice flat sedge; 320 g/ha,3 (Herbicidal rate of 40% or more and less than 70%)
same,"F: southern crabgrass, herbicidal effect grade",southern crabgrass; [5],0 (Herbicidal rate of 5% or less (almost no effect))
same,"H: barnyard grass, herbicidal effect grade",barnyard grass [2]; [5],0 (Herbicidal rate of 5% or less (almost no effect))
same,"L: windgrass, herbicidal effect grade",windgrass; [5],0 (Herbicidal rate of 5% or less (almost no effect))
same,"P: chickweed, herbicidal effect grade",chickweed; [5],3 (Herbicidal rate of 40% or more and less than 70%)
same,"Q: false cleavers, herbicidal effect grade",false cleavers [3]; [5],0 (Herbicidal rate of 5% or less (almost no effect))
same,"N: redroot pigweed, herbicidal effect grade",redroot pigweed; 320 g/ha,5 (Herbicidal rate of 90% or more (almost completely withered))
same,"O: lambsquarters, herbicidal effect grade",lambsquarters; 320 g/ha,5 (Herbicidal rate of 90% or more (almost completely withered))
same,"Q: false cleavers, herbicidal effect grade",false cleavers [4]; 320 g/ha,4 (Herbicidal rate of 70% or more and less than 90%)
same,"R: persian speedwell, herbicidal effect grade",persian speedwell; 320 g/ha,5 (Herbicidal rate of 90% or more (almost completely withered))
CCCC(=O)Oc1c(C)nn(C)c(=O)c1-c1c(-c2ccccc2OC)sc2cc(OCC)ccc12 [3-090],"Herbicidal effect, C: oval-leafed pondweed",oval-leafed pondweed; [6],4 (Herbicidal rate of 70% or more and less than 90%)
same,"herbicidal effect rating, A: late watergrass",late watergrass; AAH 310 g/ha,4 (Herbicidal rate of 70% or more and less than 90%)
same,herbicidal effect on barnyard grass (H),barnyard grass [1]; 310 g/ha,5 (Herbicidal rate of 90% or more (almost completely withered))
same,herbicidal effect on Chinese sprangletop (D),Chinese sprangletop; 310 g/ha,5 (Herbicidal rate of 90% or more (almost completely withered))
same,herbicidal effect on rice flat sedge (E),rice flat sedge; 310 g/ha,5 (Herbicidal rate of 90% or more (almost completely withered))
same,"F: southern crabgrass, herbicidal effect grade",southern crabgrass; [6],3 (Herbicidal rate of 40% or more and less than 70%)
same,"H: barnyard grass, herbicidal effect grade",barnyard grass [2]; [6],2 (Herbicidal rate of 20% or more and less than 40%)
same,"L: windgrass, herbicidal effect grade",windgrass; [6],0 (Herbicidal rate of 5% or less (almost no effect))
same,"P: chickweed, herbicidal effect grade",chickweed; [6],4 (Herbicidal rate of 70% or more and less than 90%)
same,"Q: false cleavers, herbicidal effect grade",false cleavers [3]; [6],5 (Herbicidal rate of 90% or more (almost completely withered))
same,"N: redroot pigweed, herbicidal effect grade",redroot pigweed; 310 g/ha,5 (Herbicidal rate of 90% or more (almost completely withered))
same,"O: lambsquarters, herbicidal effect grade",lambsquarters; 310 g/ha,5 (Herbicidal rate of 90% or more (almost completely withered))
same,"Q: false cleavers, herbicidal effect grade",false cleavers [4]; 310 g/ha,5 (Herbicidal rate of 90% or more (almost completely withered))
same,"R: persian speedwell, herbicidal effect grade",persian speedwell; 310 g/ha,5 (Herbicidal rate of 90% or more (almost completely withered))
